Results as given in patent US20060246117A1, “Animal husbandry method for administering a vitamin E derivative and formulation” (ADISSEO FRANCE S.A.S., priority 2003, published 2006).
One block for each compound: values may come before it.

Columns and labels:
[1] = Digestibility of vitamin E from faecal excretion in caecectomized cocks (Example 7); assay type: in vivo; details: treatment 1: Tac 40 mg, no emulsifier
Protocol: Two series of tests were carried out on caecectomized cocks. The first series comprised 32 cocks while the second comprised 51 cocks. They were fed, by “wet gavage”, with a feed which incorporated Tac (vitamin E acetate) or Tac combined, in different proportions, with one or two alimentary emulsifiers according to the invention. The Tac or the combined Tac was formulated in gelatin capsules, which were obtained by using a pipette to deposit a predetermined quantity of Tac or combined Tac in a capsule half shell and then closing the capsule with the other half shell. 48 hours after the ingestion of feed from a bowl, the faeces are collected and the excretion of the vitamin in this material is determined. To this end, the vitamin E is extracted with a vitamin E solvent, for example hexane, and the quantity extracted is then determined by HPLC chromatography. The proportion of vitamin E which has been digested is deduced from the proportion which has been excreted.

[2] = oral route, animals; cited from earlier work
[3] = Vitamin E levels in liver and muscle of piglets (Example 13); details: points at 20 IU/kg and 150 IU/kg
Description: (§2) R1: Basal diet+20 IU/kg standard Vit E (in the form of dl-α-tocopheryl acetate)
R2: Control+150 IU/kg standard Vit E
(§3) Thirty crossbred weanling piglets (8.0 kg live weight) were divided into three groups (R1, R2, R3), kept individually and distributed according to a completely randomized block design. The piglets were fed ad libitum for 14 days on a corn-wheat based diet (Table 11). The diet was supplemented with either 20 IU/kg (R1) or 150 IU/kg (R2) standard DL-α-tocopheryl acetate. […] On day 15 of the experiment the animals were slaughtered and their liver dissected, immediately frozen under liquid nitrogen and ground to powder. Muscle samples (muscularis glutaeus maximus) of about 9 cm2 were obtained from the left hind leg and frozen immediately. The vitamin E content of the samples was determined by HPLC (Castan et al. 2005) and data were statistically analysed using one-way ANOVA.

CaCo-2 = assay: Absorption of Tol and Tac by CaCo-2 cells in M20 medium, one hour at 37° C., non-ethoxylated versus ethoxylated emulsifiers (Example 3); assay type: in vitro ADME
Protocol: Absorption assays are carried out, using the same cell line as that described above, by incubating the cells for 3 hours in a physiological medium which is similar to the intestinal medium and which contains cholesterol ester hydrolase (CEH), the pancreatic enzyme which hydrolyzes the Tac into vitamin E in the animal, and sodium taurocholate, which represents the bile salts. This medium comes in the form of an oil-in-water emulsion, i.e. in the form of micelles, and is commercially identified under the reference M20. The Tac, and, where appropriate, the emulsifier being tested, are placed in this medium. The concentration, in vitamin E equivalent, which is introduced into each well in the form of Tac is 156 μM.
The general experimental conditions of the protocol described in Example 2, 2.1) are identical apart from the fact that the area of the wells and the concentration of Tac introduced into the M20 medium differ. The area of the wells is 6.5 cm^2 and the concentration of Tac is 23.7 μM/cm^2.
Four experiments are carried out, with each being repeated three times, using a protocol which comprises one hour of incubation at 37° C., as follows: • 1) M20 on its own, at the rate of 2 mM; the Tac is therefore on its own without emulsifier; • 2) M20+SML (sorbitan monolaurate) emulsifier • 3) M20+SMP (sorbitan monopalmitate) emulsifier • 4) M20+ESML (ethoxylated sorbitan monolaurate)
In the case of each of the assays 2), 3) and 4), the ratio by weight of the added emulsifier to the Tac (in vitamin E equivalent) is 1:6.9.
Four experiments are carried out, with each being repeated three times, using a protocol which comprises one hour of incubation at 37° C., as follows: • 1) M20 on its own; the Tac is therefore on its own without emulsifier; • 2) M20+SML (sorbitan monolaurate) emulsifier • 3) M20+SMP (sorbitan monopalmitate) emulsifier • 4) M20+MOSE (ethoxylated sorbitan monooleate)

[4] = tested on: cholesterol ester hydrolase (pancreatin); assay: Combined release of Tac from silica support and hydrolysis of the released Tac to Tol (Example 6); assay type: in vitro ADME
Protocol: (§1) The present example tests the effect of an emulsifier according to the invention, i.e. SMO (sorbitan monooleate). For this purpose, use is made of Tac on a silica support, in a ratio by weight of 1:1, for the assay without emulsifier, and of Tac+emulsifier (SMO) on silica, in a ratio by weight of 50:5:45.
8 mg of Tac (where appropriate +SMO) on the above silica (that is a final concentration of Tac of 16.9 μM) are incubated for 3 hours, while stirring and at 37° C., in the following solutions:
35 mM phosphate, pH 6.5, […] NaCl, pancreatin (2 mg) and bile salts (20 mM).
Before incubating, and after 1 hour and 3 hours, respectively, of incubation under the aforementioned conditions, the concentration of vitamin E in the solution is measured in comparison with the initial quantity of Tac.

[5] = Plasma vitamin E level of piglets after intraduodenal infusion (Example 9); assay type: in vivo; details: 800 IU single bolus intraduodenally; pooled samples 4-24 h postprandially
Description: In order to exclude gastric influences or impacts of the carrier, the emulsifier of the invention was intraduodenally infused in liquid form (oil).
Three weaning piglets (initial BW 12 kg) were surgically fitted with a silicon catheter in the jugular vein as well as with a silicon cannula in the proximal duodenum according to the procedure described by Thaela et al. (1995).
A standard weaner diet without vitamin E supplementation was fed to the piglets. The animals were fed a daily feed allowance corresponding to 2.0×W^0.75, distributed twice in equal meals (08.00 h and 16.00). The animals were adapted for 7d to the basal diet. […] 2 treatments×3 piglets×2 repetitions (cross-over)
R1: 800 IU Vitamin E standard oil, infused as a single bolus intraduodenally
Blood samples were taken 4, 8, 12, 16, 20 and 24 h postprandially, plasma was obtained and samples were pooled. After the experiment, the animals were newly adapted to the basal diet for 7d before the 2nd repetition was done accordingly. The vitamin E content in the plasma was determined by HPLC according to the method by Castan et al. (2005). Data were analysed using the ANOVA procedure of Statview.

[6] = Release of Tac from its silica support (Example 4); assay type: physicochemical; details: 2.5 hours, 38° C., Tac on silica
Protocol: as §1, with “monooleate), on the release of Tac which is attached to silica. To” for “monooleate). For”, “end,” for “purpose,”, “silica” for “silica,”
10 g of Tac (where appropriate +SMO) on the above silica (that is a final concentration of Tac of 10 mM) are incubated for 2.5 hours, while stirring and at 38° C., under different pH conditions in the following solutions:
either 35 mM phosphate, pH 6.5, 0.15 mM NaCl
or 35 mM HCl/glycine, pH 2.5

[7] = Vitamin E levels in egg yolks of laying hens (Example 11); assay type: in vivo, ISA brown laying hens; details: supplementation level of 100 mg/kg feed
Protocol: Forty ISA brown laying hens, 23 weeks of age, were equally divided into 4 groups and individually housed in cages. The animals received the meal experimental diets (R1-R4) ad libitum for 21 days. The eggs layed on D20 to 21 were collected, weighed and stored at +4° C. The vitamin E levels in the egg yolk were determined by HPLC according to the method by […] et al. (2005). Data were analysed using the ANOVA procedure of Statview.

[8] = molecular target: T1, cholesterol ester hydrolase (Homo sapiens, UniProt P19835); assay: Tac hydrolysis in M40 micelle above CaCo-2 cells, 2 hours (Example 8.2); assay type: in vitro ADME; details: Tac 67 nmol/cm^2; Tac/emulsifier ratio 100/1; 2 hours at 37° C.
T1 sequence (P19835 21-753): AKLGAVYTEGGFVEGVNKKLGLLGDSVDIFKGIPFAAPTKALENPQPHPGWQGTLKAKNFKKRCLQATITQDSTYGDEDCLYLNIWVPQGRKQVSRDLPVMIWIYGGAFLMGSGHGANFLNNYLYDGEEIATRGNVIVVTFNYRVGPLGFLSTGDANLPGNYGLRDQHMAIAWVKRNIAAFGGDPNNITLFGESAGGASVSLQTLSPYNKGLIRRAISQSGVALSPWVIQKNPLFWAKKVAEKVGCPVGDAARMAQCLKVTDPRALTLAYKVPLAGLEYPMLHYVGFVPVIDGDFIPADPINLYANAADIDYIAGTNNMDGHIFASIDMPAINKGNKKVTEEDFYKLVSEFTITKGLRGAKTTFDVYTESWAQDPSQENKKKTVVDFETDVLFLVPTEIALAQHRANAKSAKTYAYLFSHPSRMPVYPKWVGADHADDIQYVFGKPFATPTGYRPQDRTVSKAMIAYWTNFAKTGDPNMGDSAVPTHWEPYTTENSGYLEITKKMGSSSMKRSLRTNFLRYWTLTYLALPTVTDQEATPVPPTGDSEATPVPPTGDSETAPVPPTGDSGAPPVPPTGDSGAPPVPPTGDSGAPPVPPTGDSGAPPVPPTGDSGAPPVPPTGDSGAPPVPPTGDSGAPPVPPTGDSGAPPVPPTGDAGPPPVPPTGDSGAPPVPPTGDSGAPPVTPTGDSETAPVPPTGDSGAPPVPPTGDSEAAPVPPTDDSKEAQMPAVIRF
Protocol: The conditions under which the tests are carried out are as follows: • Cell model: CaCo-2 cells • Area of the wells: 4.2 cm^2 • Quantity of Tac: 67 nmol/cm^2 • Solution employed: M40 micelle in accordance with Mathias et al.
Treatments: • A: Without emulsifier • B: With emulsifier (SMP+SMO mixture; ratio 1/1), Tac/emulsifier ratio 100/1
Period of incubation: 2 hours at 37° C.
Analyses: Analysis of Tac in the medium above the cells for the purpose of calculating the degree of hydrolysis.

[9] = in vivo
Description: as §2
R2: Control+150 IU/kg standard Vit E
as §3

[10] = Plasma and liver vitamin E levels of broilers fed graded doses (Example 10); assay type: in vivo, Ross male broiler chicks; details: d35, diets fed d15 to d34
Description: R3: Control+120 IU/kg standard Vit E
R4: Control+200 IU/kg standard Vit E
Three hundred Ross male broiler chicks were divided into 6 groups and housed in 6 pens. From d0 to d14, all animals were fed the same, vitamin E free, basal diet.
The animals received the pelleted experimental diets (R1-R6) ad libitum from d15 to d34. On d35, 15 broilers per treatment, which were closest to the mean body weight, were selected. Plasma samples were collected by intracardiac puncture. Birds were then slaughtered by pentobarbital injection. Livers were dissected, deep frozen in liquid nitrogen and immediately ground. The vitamin E levels in plasma or livers were determined by HPLC according to the method by Castan et al. (2005). Data were analysed using the ANOVA procedure of Statview.

[11] = Example 3.2, emulsifier:Tac 1:6.9
[12] = Example 3.3, emulsifier:Tac 1:6.9

Mean digestibility ([1]; first series, faeces at 48 hours): 24.8% | Mean digestibility ([1]; second series): 26.1% | slope of the regression curve for vitamin E contents in livers [3]: 1.89 | slope of the regression curve for vitamin E contents in muscle samples [3]: 0.89 | Absorption, Tac (CaCo-2; [11]): 1.68 nmol/cm^2 | Absorption, Tol (CaCo-2; [11]): 1.77 nmol/cm^2 | Absorption, Vitamin E (Tol + Tac in vitamin E equivalent) (CaCo-2; [11]): 3.45 nmol/cm^2 | Absorption, Tac (CaCo-2; [12]): 2.31 nmol/cm^2 | Absorption, Tol (CaCo-2; [12]): 1.29 nmol/cm^2 | Absorption, Vitamin E (Tol + Tac in vitamin E equivalent) (CaCo-2; [12]): 3.60 nmol/cm^2 | concentration of vitamin E in the solution in comparison with the initial quantity of Tac ([4]; time 0 minutes (before incubating)): 1.21 | concentration of vitamin E in the solution in comparison with the initial quantity of Tac ([4]; time 60 minutes): 1.30 | concentration of vitamin E in the solution in comparison with the initial quantity of Tac ([4]; time 180 minutes): 5.25 | overall plasma vitamin E level [5]: 5.72 nmol/mL | % of vitamin E released at pH 2.5 ([6]; 35 mM HCl/glycine, pH 2.5): 46.5% | % of vitamin E released at pH 6.5 ([6]; 35 mM phosphate, pH 6.5): 59.6% | total vitamin E content of the yolk [7]: 4.07 mg | Tac hydrolysis [8]: 9.7% | increase of vitamin E content in liver as compared to piglets fed 20 IU/kg DL-α-tocopheryl acetate [9]: 51% | increase of vitamin E content in muscle as compared to piglets fed 20 IU/kg DL-α-tocopheryl acetate [9]: 35% | slope of the curve of liver vitamin E level versus dietary dose ([10]; liver): 0.1896 | slope of the curve of plasma vitamin E level versus dietary dose ([10]; plasma): 0.1211
Compound: CC(=O)Oc1c(C)c(C)c2c(c1C)CC[C@@](C)(CCC[C@H](C)CCC[C@H](C)CCCC(C)C)O2 [Tac, d,l-α-tocopheryl acetate]
bioavailability [2]: ≤ 40%

Compound: Cc1c(C)c2c(c(C)c1O)CC[C@@](C)(CCC[C@H](C)CCC[C@H](C)CCCC(C)C)O2 [vitamin E, d-α-tocopherol]
bioavailability [2]: ≤ 50%
